Common to all, as to format: in vivo
The subject of data set [1] is directly sowed Oryza sativa. As to the kind of experiment: Test Example 3: effect on crop by application to foliage (Wagner pot, water depth 0.1-0.5 cm). To be noted: Nineteenth Table; application to foliage; application herbicide amount 320 g/ha. In a few lines: (§1)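 Rice-field weeds and directly sown rice were grown 14 days in flooded alluvial soil (water depth 0.1–0.5 cm) at 25–30 °C in a greenhouse. An emulsion formulation diluted to the stated g/ha rate was sprayed onto stems and leaves. Effects were scored on a 0–5 scale (herbicidal ratio bands) three weeks after treatment.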

Another data set has as its system Leptochloa chinensis. As to the kind of experiment: Test Example 3: herbicidal effect by application to foliage (Wagner pot, water depth 0.1-0.5 cm). The following applies: Nineteenth Table; application to foliage; application herbicide amount 320 g/ha. In a few lines: as §1
A further data set concerns Cyperus difformis. The description is as above. To be noted: Nineteenth Table; application to foliage; application herbicide amount 320 g/ha. In outline:
as §1

Data set [2] has as its system Echinochloa crus-galli var. crus-galli. The data set is described as above. To be noted: Nineteenth Table; application to foliage; application herbicide amount 320 g/ha. In a few lines: as §1
Data set [3] relates to transplanted Oryza sativa. Nature of the data set: Test Example 1: effect on crop, application before weed generation in submerged conditions. The following applies: Application herbicide amount 320 g/ha; Seventeenth Table. In a few lines:
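Alluvial soil in Wagner pots flooded to 4 cm water depth; weed seeds sown and 2.5 leaf stage rice seedlings transplanted. Emulsion diluted in water applied to water surface on sowing day at stated g/ha. Greenhouse 25° C. to 30° C.; effects scored 0–5 by herbicidal ratio after three weeks.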

The test system of the next data set is Monochoria vaginalis. Nature of the data set: Test Example 2: herbicidal activity, application during weed generation in submerged conditions. To be noted: Eighteenth Table; application herbicide amount 320 g/ha. In outline: (§2)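 Alluvial soil in Wagner pots flooded to 4 cm water depth; seeds sown mixed, grown in greenhouse at 25–30 °C. At one- to two-leaf stage, emulsion diluted with water to the set rate (g/ha) was applied to the water surface. Effect scored 0–5 by herbicidal ratio three weeks later.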

For data set [4], the system named is Echinochloa oryzacola Vasing. The description is as above. The following applies: Eighteenth Table; application herbicide amount 320 g/ha. In a few lines:
as §2

In the next data set the test system is Scirpus juncoides. The data set is described as above. The following applies: Eighteenth Table; application herbicide amount 320 g/ha. In outline: as §2

Consider `CSCCn1nnnc1NC(=O)c1ccc(C(F)(F)F)n2c(C(C)C)nnc12` [2-048], for which the “b (effect on crop grade)” value in data set [1] is 3 (Herbicidal ratio of 40% or more and less than 70%). For the same compound, the “D (herbicidal effect grade)” value with Leptochloa chinensis was 5 (Herbicidal ratio of 90% or more (almost completely withered)). Moreover, the “E (herbicidal effect grade)” value in the data set on Cyperus difformis is recorded as 5 (Herbicidal ratio of 90% or more (almost completely withered)). In data set [2], the “H (herbicidal effect grade)” value is listed as 5 (Herbicidal ratio of 90% or more (almost completely withered)). Moreover, the “a: transplanted Oryza sativa (effect on crop grade)” value (“a: transplanted Oryza sativa” for short) in data set [3] was 4 (Herbicidal ratio of 70% or more and less than 90%). For the same compound, in the data set on Monochoria vaginalis, the “C (Monochoria vaginalis) herbicidal ratio grade” value was 3 (Herbicidal ratio of 40% or more and less than 70%). In addition, the “A (Echinochloa oryzicola Vasing.) herbicidal ratio grade” value in data set [4] is 3 (Herbicidal ratio of 40% or more and less than 70%). The “B (Scirpus juncoides) herbicidal ratio grade” value in the data set on Scirpus juncoides is 4 (Herbicidal ratio of 70% or more and less than 90%).
As to `Cn1nnnc1NC(=O)c1ccc(C(F)(F)F)n2c(N3CCSCC3)nnc12` [2-078], the “b (effect on crop grade)” value in data set [1] was 4 (Herbicidal ratio of 70% or more and less than 90%). For the same compound, the “D (herbicidal effect grade)” value in the data set on Leptochloa chinensis is 5 (Herbicidal ratio of 90% or more (almost completely withered)). Besides, the “E (herbicidal effect grade)” value in the data set with Cyperus difformis was 3 (Herbicidal ratio of 40% or more and less than 70%). Further, the “H (herbicidal effect grade)” value in data set [2] is recorded as 5 (Herbicidal ratio of 90% or more (almost completely withered)). Further, in data set [3], the “a: transplanted Oryza sativa” value is 4 (Herbicidal ratio of 70% or more and less than 90%). For the same compound, the “C (Monochoria vaginalis) herbicidal ratio grade” value in the data set with Monochoria vaginalis was 3 (Herbicidal ratio of 40% or more and less than 70%). Moreover, the “A (Echinochloa oryzicola Vasing.) herbicidal ratio grade” value in data set [4] was 4 (Herbicidal ratio of 70% or more and less than 90%). In addition, in the data set on Scirpus juncoides, the “B (Scirpus juncoides) herbicidal ratio grade” value is 4 (Herbicidal ratio of 70% or more and less than 90%).
In the case of `CC(c1nnc2c(C(=O)Nc3nnnn3C)ccc(C(F)(F)F)n12)S(C)(=O)=O` (centres unmarked) [2-054], the “b (effect on crop grade)” value in data set [1] is 5 (Herbicidal ratio of 90% or more (almost completely withered)). Besides, the “D (herbicidal effect grade)” value in the data set on Leptochloa chinensis is on record as 5 (Herbicidal ratio of 90% or more (almost completely withered)). Besides, the “E (herbicidal effect grade)” value in the data set with Cyperus difformis is recorded as 5 (Herbicidal ratio of 90% or more (almost completely withered)). Besides, the “H (herbicidal effect grade)” value in data set [2] is 5 (Herbicidal ratio of 90% or more (almost completely withered)). Further, the “a: transplanted Oryza sativa” value in data set [3] is 5 (Herbicidal ratio of 90% or more (almost completely withered)). Further, the “C (Monochoria vaginalis) herbicidal ratio grade” value with Monochoria vaginalis is given as 5 (Herbicidal ratio of 90% or more (almost completely withered)). In addition, the “A (Echinochloa oryzicola Vasing.) herbicidal ratio grade” value in data set [4] is recorded as 5 (Herbicidal ratio of 90% or more (almost completely withered)). Further, the “B (Scirpus juncoides) herbicidal ratio grade” value with Scirpus juncoides was 4 (Herbicidal ratio of 70% or more and less than 90%).
Regarding `CN(C)c1nnc2c(C(=O)Nc3nnnn3C)ccc(C(F)(F)F)n12` [2-051], the “b (effect on crop grade)” value in data set [1] is 4 (Herbicidal ratio of 70% or more and less than 90%). The “D (herbicidal effect grade)” value with Leptochloa chinensis is 5 (Herbicidal ratio of 90% or more (almost completely withered)). Further, the “E (herbicidal effect grade)” value in the data set on Cyperus difformis was 5 (Herbicidal ratio of 90% or more (almost completely withered)). For the same compound, in data set [2], the “H (herbicidal effect grade)” value is 5 (Herbicidal ratio of 90% or more (almost completely withered)). The “a: transplanted Oryza sativa” value in data set [3] was 4 (Herbicidal ratio of 70% or more and less than 90%). The “C (Monochoria vaginalis) herbicidal ratio grade” value in the data set with Monochoria vaginalis is reported as 5 (Herbicidal ratio of 90% or more (almost completely withered)). The “A (Echinochloa oryzicola Vasing.) herbicidal ratio grade” value in data set [4] is on record as 5 (Herbicidal ratio of 90% or more (almost completely withered)). For the same compound, the “B (Scirpus juncoides) herbicidal ratio grade” value in the data set with Scirpus juncoides was 5 (Herbicidal ratio of 90% or more (almost completely withered)).
On to `Cn1nnnc1NC(=O)c1ccc(C(F)(F)F)n2c(CS(C)(=O)=O)nnc12` [2-034], for which the “b (effect on crop grade)” value in data set [1] is 5 (Herbicidal ratio of 90% or more (almost completely withered)). Besides, the “D (herbicidal effect grade)” value in the data set on Leptochloa chinensis was 5 (Herbicidal ratio of 90% or more (almost completely withered)). The “E (herbicidal effect grade)” value in the data set on Cyperus difformis is 5 (Herbicidal ratio of 90% or more (almost completely withered)). The “H (herbicidal effect grade)” value in data set [2] is given as 5 (Herbicidal ratio of 90% or more (almost completely withered)). The “a: transplanted Oryza sativa” value in data set [3] was 4 (Herbicidal ratio of 70% or more and less than 90%). The “C (Monochoria vaginalis) herbicidal ratio grade” value with Monochoria vaginalis is 4 (Herbicidal ratio of 70% or more and less than 90%). Also, the “A (Echinochloa oryzicola Vasing.) herbicidal ratio grade” value in data set [4] was 5 (Herbicidal ratio of 90% or more (almost completely withered)). Further, the “B (Scirpus juncoides) herbicidal ratio grade” value in the data set on Scirpus juncoides was 4 (Herbicidal ratio of 70% or more and less than 90%).
`Cn1nnnc1NC(=O)c1ccc(C(F)(F)F)n2c(CCS(C)(=O)=O)nnc12` [2-059]: the “b (effect on crop grade)” value in data set [1] was 5 (Herbicidal ratio of 90% or more (almost completely withered)). The “D (herbicidal effect grade)” value in the data set with Leptochloa chinensis is on record as 5 (Herbicidal ratio of 90% or more (almost completely withered)). The “E (herbicidal effect grade)” value in the data set on Cyperus difformis is 5 (Herbicidal ratio of 90% or more (almost completely withered)). Further, the “H (herbicidal effect grade)” value in data set [2] was 5 (Herbicidal ratio of 90% or more (almost completely withered)). Further, the “a: transplanted Oryza sativa” value in data set [3] was 5 (Herbicidal ratio of 90% or more (almost completely withered)). For the same compound, the “C (Monochoria vaginalis) herbicidal ratio grade” value in the data set on Monochoria vaginalis was 4 (Herbicidal ratio of 70% or more and less than 90%). Further, the “A (Echinochloa oryzicola Vasing.) herbicidal ratio grade” value in data set [4] was 4 (Herbicidal ratio of 70% or more and less than 90%). Further, the “B (Scirpus juncoides) herbicidal ratio grade” value in the data set on Scirpus juncoides was 3 (Herbicidal ratio of 40% or more and less than 70%).
`CCCS(=O)(=O)c1nnc2c(C(=O)Nc3nnnn3C)ccc(C(F)(F)F)n12` [2-070]: in data set [1], the “b (effect on crop grade)” value was 3 (Herbicidal ratio of 40% or more and less than 70%). For the same compound, the “D (herbicidal effect grade)” value in the data set with Leptochloa chinensis is given as 5 (Herbicidal ratio of 90% or more (almost completely withered)). In the data set with Cyperus difformis, the “E (herbicidal effect grade)” value is recorded as 5 (Herbicidal ratio of 90% or more (almost completely withered)). Besides, in data set [2], the “H (herbicidal effect grade)” value is on record as 5 (Herbicidal ratio of 90% or more (almost completely withered)). In addition, the “a: transplanted Oryza sativa” value in data set [3] is 4 (Herbicidal ratio of 70% or more and less than 90%). In addition, in the data set with Monochoria vaginalis, the “C (Monochoria vaginalis) herbicidal ratio grade” value is reported as 5 (Herbicidal ratio of 90% or more (almost completely withered)). Moreover, in data set [4], the “A (Echinochloa oryzicola Vasing.) herbicidal ratio grade” value is given as 5 (Herbicidal ratio of 90% or more (almost completely withered)). Besides, the “B (Scirpus juncoides) herbicidal ratio grade” value in the data set on Scirpus juncoides is on record as 5 (Herbicidal ratio of 90% or more (almost completely withered)).
As for `Cc1cc(-c2nnc3c(C(=O)Nc4nnnn4C)ccc(C(F)(F)F)n23)n(C)n1` [2-062], in data set [1], the “b (effect on crop grade)” value is on record as 5 (Herbicidal ratio of 90% or more (almost completely withered)). The “D (herbicidal effect grade)” value in the data set on Leptochloa chinensis is listed as 5 (Herbicidal ratio of 90% or more (almost completely withered)). For the same compound, the “E (herbicidal effect grade)” value with Cyperus difformis is reported as 5 (Herbicidal ratio of 90% or more (almost completely withered)). The “H (herbicidal effect grade)” value in data set [2] is 5 (Herbicidal ratio of 90% or more (almost completely withered)). Besides, in data set [3], the “a: transplanted Oryza sativa” value is reported as 5 (Herbicidal ratio of 90% or more (almost completely withered)). Besides, the “C (Monochoria vaginalis) herbicidal ratio grade” value in the data set on Monochoria vaginalis is 5 (Herbicidal ratio of 90% or more (almost completely withered)). The “A (Echinochloa oryzicola Vasing.) herbicidal ratio grade” value in data set [4] was 5 (Herbicidal ratio of 90% or more (almost completely withered)). For the same compound, the “B (Scirpus juncoides) herbicidal ratio grade” value in the data set on Scirpus juncoides was 4 (Herbicidal ratio of 70% or more and less than 90%).
With `Cn1nnnc1NC(=O)c1ccc(C(F)(F)F)n2c(SCC3CCCO3)nnc12` (centres unmarked) [2-085], the “b (effect on crop grade)” value in data set [1] is 4 (Herbicidal ratio of 70% or more and less than 90%). Also, in the data set on Leptochloa chinensis, the “D (herbicidal effect grade)” value was 5 (Herbicidal ratio of 90% or more (almost completely withered)). The “E (herbicidal effect grade)” value in the data set on Cyperus difformis was 4 (Herbicidal ratio of 70% or more and less than 90%). The “H (herbicidal effect grade)” value in data set [2] is recorded as 5 (Herbicidal ratio of 90% or more (almost completely withered)). For the same compound, in data set [3], the “a: transplanted Oryza sativa” value was 1 (Herbicidal ratio of 5% or more and less than 20%). Moreover, the “C (Monochoria vaginalis) herbicidal ratio grade” value with Monochoria vaginalis was 3 (Herbicidal ratio of 40% or more and less than 70%). In addition, the “A (Echinochloa oryzicola Vasing.) herbicidal ratio grade” value in data set [4] was 4 (Herbicidal ratio of 70% or more and less than 90%). Moreover, the “B (Scirpus juncoides) herbicidal ratio grade” value in the data set with Scirpus juncoides is 4 (Herbicidal ratio of 70% or more and less than 90%).
For the compound `CSC(C)c1nnc2c(C(=O)Nc3nnnn3C)ccc(C(F)(F)F)n12` (centres unmarked) [2-052], in data set [1], the “b (effect on crop grade)” value is given as 5 (Herbicidal ratio of 90% or more (almost completely withered)). The “D (herbicidal effect grade)” value with Leptochloa chinensis is 5 (Herbicidal ratio of 90% or more (almost completely withered)). Also, the “E (herbicidal effect grade)” value in the data set on Cyperus difformis is reported as 5 (Herbicidal ratio of 90% or more (almost completely withered)). For the same compound, the “H (herbicidal effect grade)” value in data set [2] was 5 (Herbicidal ratio of 90% or more (almost completely withered)). The “a: transplanted Oryza sativa” value in data set [3] is recorded as 5 (Herbicidal ratio of 90% or more (almost completely withered)). The “C (Monochoria vaginalis) herbicidal ratio grade” value in the data set with Monochoria vaginalis was 4 (Herbicidal ratio of 70% or more and less than 90%). Further, the “A (Echinochloa oryzicola Vasing.) herbicidal ratio grade” value in data set [4] is listed as 5 (Herbicidal ratio of 90% or more (almost completely withered)). Also, the “B (Scirpus juncoides) herbicidal ratio grade” value with Scirpus juncoides was 4 (Herbicidal ratio of 70% or more and less than 90%).

Source of the values: patent publication US9708314B2, “Heterocyclic amide compound” (NISSAN CHEMICAL INDUSTRIES, LTD., priority 2013, dated 2017).
